Assay results as given in US20080155704A1, “Methods and Compositions for Determining in vivo Activity of BiP” (King's College London, priority 2006, published 2008).

How the values were obtained:
[1] = test system: monocyte-derived dendritic cells; assay: Surface expression of phenotypic markers on monocyte-derived dendritic cells (immunofluorescence, flow cytometry); type: cell-based, human
Procedure: Purified monocytes (>85% monocytes)(1.5.10^6/flask)(Corning Costar, High Wycombe, UK) were incubated in 5 ml of tissue culture medium (TCM)(RPMI 1640 medium (Sigma, Poole, UK) supplemented with 10% heat-inactivated foetal calf serum (FCS)(Life Technologies, Paisley, UK). iDC were generated using granulocyte macrophage—colony stimulating factor (GM-CSF) (1000 U/ml)(Novartis Research Institute, Vienna, Austria) and IL-4 (500 U/ml) (R&D Systems, Oxford, UK). Monocytes were cultured for 3 or 7 days with cytokines, either alone or in the presence of rhuBiP (20 μg/ml). Mature DC were generated by addition of 500 ng/ml lipopolysaccharide (LPS) for the final 2 days of culture.
Immunofluorescent staining was performed as follows when required. Cells were suspended in immunofluorescent buffer (IF) (PBS/0.1% BSA/0.05% azide) washed and incubated for 10 mins on ice with normal human serum. After washing twice in IF buffer, saturating concentrations of fluorescein isothiocyanate (FITC)-, phycoerythrin (PE) or peridium chlorophyll (Per-CP)-conjugated monoclonal antibodies (mAb) recognizing human CD14, CD86, CD80, HLA-DR, CD11c, CD1a, CD83, CD40 and CD85j, (all from Becton Dickinson/PharMingen, Oxford, UK) were added singly or in combination, as stated in the text, to cells for 20 mins on ice. Cells were then washed twice in IF buffer and analysed. Isotype controls, IgG1 and IgG2a (Becton Dickinson, Oxford, UK) were used in parallel.
Purified monocytes were cultured with and without BiP for three days (early DC/early DC(BiP)) or 7 days with GM-CSF and IL-4 (iDC/iDC(BiP)) or for 7 days with additional LPS for the final 2 days (mDC/mDC(BiP)). *BiP [20 μg/ml] was added at the same time as the cytokines. (a) and (b): Results are expressed as mean and standard error (mean ±SE) of the % positive cells from 4 or 7 different experiments, respectively.
Table A: Surface expression of phenotypic markers: Purified monocytes were differentiated into immature dendritic cells (iDC) with GM-CSF and IL-4 for 7d in the presence or absence of BiP (20 μg/ml). LPS (500 ng/ml) was added for the final 2d to give mature DC(mDC). Cell surface expression of molecules was measured by immunofluorescence and flow cytometry. Results are expressed as mean and standard deviation (mean ±SD) of the mean fluorescent intensity (MFI) from 7 different experiments:
Purified MO (>85% monocytes)(1.5.106/flask)(Corning Costar, High Wycombe, UK) were incubated in 5 ml of tissue culture medium (TCM)(RPMI 1640 medium (Sigma, Poole, UK) supplemented with 10% heat-inactivated foetal calf serum (FCS)(Life Technologies, Paisley, UK). iDC were generated by culturing MO with granulocyte macrophage-colony stimulating factor (GM-CSF) (1000 U/ml)(Novartis Research Institute, Vienna, Austria) and IL-4 (500 U/ml) (R&D Systems, Oxford, UK) for 3 or 7d, either alone or in the presence of rhuBiP (20 μg/ml). Cytokines and BiP were replenished every 2d. Mature DC were generated by addition of LPS (500 ng/ml) for the final 2d of a 7d culture.
Immunofluorescent staining was performed, as described previously (39), on DC harvested at day 7, T cells after 4 days co-culture with DC. Saturating concentrations of fluorescein isothiocyanate (FITC)-, phycoerythrin (PE) or peridium chlorophyll (Per-CP)-conjugated mAb were added recognizing CD14, CD86, CD80, HLA-DR, CD11c, CD1a, CD83, CD85j, IL-10 receptor; purity of the negatively selected MO and T cells was checked using CD3, CD4, CD14, CD20 and CD57 (all from Becton Dickinson/PharMingen (BD), Oxford, UK). Intracellular staining was carried out following fixation of cells with 1% paraformaldehyde for 5 minutes. Cells were then washed with immunofluorescence buffer (PBS/0.1% BSA/0.05% azide) containing 0.3% saponin. 0.3% saponin was then present in all solutions thereafter. CD152/CTLA-4 (BD, Oxford UK) and IDO (Santa Cruz, Autogen Bioclear, UK) were intracellular stains. Isotype controls, IgG1 and IgG2a (BD, Oxford, UK) were used in parallel. […]

IL-8 = IL-8 production by dendritic cells (cytometric bead array); type: cell-based, human; conditions: iDC and mDC, BiP 20 μg/ml, 7d culture (FIG. 7)
Excerpt: In a series of experiments IL-8 was detected using cytometric bead array (Becton Dickinson) where the mean fluorescence intensity (MFI) is proportional to the concentration of cytokine.

[2] = Early iDC(BiP): 3 days GM-CSF and IL-4, BiP 20 μg/ml, mean ±SE
[3] = iDC(BiP): 7 days GM-CSF and IL-4, BiP 20 μg/ml, mean ±SE
[4] = mDC(BiP), BiP 20 μg/ml, mean fluorescence intensity, up to 7 experiments
[5] = mDC(BiP): 7 days GM-CSF and IL-4, LPS final 2 days, BiP 20 μg/ml, mean ±SE

## BiP: 78 kD endoplasmic reticulum chaperone protein as disclosed in WO 00/21995; recombinant human protein
[1]; [2]
  % cells CD1a+: 1 ± 2%
  % cells CD11c+: 81 ± 7%
  % cells CD80+: 36 ± 15%
  % cells CD83: 2. ± 2%
  % cells CD86+: 3 ± 1%
  % cells HLA-DR: 31 ± 7%
[1]; Early iDC(BiP): monocytes 3 days with GM-CSF and IL-4, BiP 20 μg/ml, mean ±SE
  % cells CD14: 91 ± 6%
[1]; iDC(BiP), BiP 20 μg/ml, mean fluorescence intensity, up to 7 experiments
  MFI CD11c: 2246 ± 329
[1]; iDC(BiP): 7 days GM-CSF and IL-4, BiP 20 μg/ml
  % positive cells CD40+85j+: 26±19%
[1]; [3]
  % positive cells CD1a+: 83 ± 9%
  % positive cells CD11c+: 97 ± 2%
  % positive cells CD14+: 59 ± 22%
  % positive cells CD40+: 28 ± 20%
  % positive cells CD80+: 88 ± 7%
  % positive cells CD83+: 10 ± 5%
  % positive cells CD86+: 31 ± 11%
  % positive cells CD210+: 12 ± 9%
  % positive cells HLA-DR+: 96 ± 2%
[1]; mDC(BiP) (FIG. 10C)
  maturation as determined by upregulation of CD83 after addition of LPS: failed to mature
[1]; mDC(BiP) versus mDC
  CD40 expression by mDC(BiP): no difference in CD40 expression
[1]; [4]
  MFI CD1a: 685 ± 145
  MFI CD14: 366 ± 216
  MFI CD80: 395 ± 31
  MFI CD86: 112 ± 14
  MFI HLA-DR: 1660 ± 167
[1]; mDC(BiP), n=4
  cell surface expression of CD85j (ILT2): 87.2±3.5%
[1]; [5]
  % positive cells CD1a+: 76 ± 14%
  % positive cells CD11c+: 94 ± 5%
  % positive cells CD14+: 57 ± 22%
  % positive cells CD40+: 32 ± 24%
  % positive cells CD40+85j+: 29 ± 23%
  % positive cells CD80+: 91 ± 6%
  % positive cells CD83+: 10 ± 4%
  % positive cells CD86+: 26 ± 9%
  % positive cells CD210+: 19 ± 17%
  % positive cells HLA-DR+: 96 ± 1%
[1]; mature DC, dose-dependent 0.5-20 μg/ml BiP (FIG. 10B)
  CD14 and CD86 expression on DC cultured in the presence of BiP: sustained CD14 expression and failed to upregulate CD86
IL-8
  IL-8 production (MFI) in culture supernatants: suppressed IL-8 production
